# Measurements taken from the NIST ThermoML archive (doi:10.1016/j.jct.2012.01.003).
# Numbers after ± are expanded uncertainties.
# What was measured:
# [1] = 298.2 K; 101.33 kPa; Liquid; Kyoto 210 Density Meter
# [2] = refractive index (Na D-line) (dimensionless); conditions: 298.2 K; 101.33 kPa; Liquid; Standard Abbe refractometry
mass density [1] [kg/m3],refractive index [2],SMILES
,1.3324 ± 0.0004,O [water]
818.83 ± 0.24,1.4224 ± 0.0004,CCCCCCCO [heptan-1-ol]

# Further lines, the molecule ahead of its results:
SMILES,mass density [1] [kg/m3],refractive index [2]
CCC(C)O (stereo unspecified) [butan-2-ol],802.34 ± 0.23,1.3949 ± 0.0004
CCCCCCO [hexan-1-ol],815.21 ± 0.24,1.4155 ± 0.0004
CCCCCCCCCCO [decan-1-ol],826.86 ± 0.24,1.4344 ± 0.0004
CCCCCCCCO [octan-1-ol],825.1 ± 0.24,1.427 ± 0.0004
